Source: patent US8518889B2, “Method of treating cancer with antibodies against long-form leukotriene B4 receptor BLT2” (Korea University Research & Business Foundation, priority 2007, dated 2013)

Assays:
[1] = test system: 253J-BV cell (bladder cancer cell); test: morphological changes by light microscopy; type: cell-based, human; details: 1-10 μM, 48 hr
Procedure: Bladder cancer cells grown in 6 well-plate were treated with 10 μM LY255283, 1 uM U75302 for 48 hr. Cells were then viewed using light microscopy (×100). SV-HUC-1 cell (normal bladder cell) and 253J-BV cell (bladder cancer cell) were treated with different concentrations (1-10 μM) of LY255283 (BLT2 specific antagonist), U75302 (BLT1 specific antagonist) for 48 hr. […] But normal bladder cell line was not effect on morphological change treated with BLT antagonists.

[2] = test system: 253J-BV bladder cancer cell; test: DNA fragmentation; type: cell-based, human; details: 10 μM LY255283 or 1 μM U75302, 48 hr
Procedure: DNA fragmentation was shown by the harvesting of total cellular DNA. Cells were grown in 100 mm plates to 80% confluence with 10% FBS-supplemented medium. […] Cellular DNA from cells extracted incubating with lysis buffer (1 mM EDTA, 10 mM Tris, 120 mM NaCl, 1% SDS and 100 μg/ml proteinase K, pH 8.0) for 12 hr at 50° C. The lysate was centrifuged for 10 min at 13,000×g to separate the fragment DNA from intact chromatin (nuclear pellet). The supernatant was then extracted twice with phenol/chloroform/isoamyl alcohol and precipitated with absolute ethanol. […] After electrophoresis, gels were stained with ethidium bromide, and the DNA was visualized by UV light. Apoptosis is characterized by fragmentation of chromosomal DNA. The effect of BLT antagonists on DNA damage of bladder cancer cell line was investigated.

Rat2-HO6 cells = test: experimental metastasis assay, lung metastasis driven by H-Ras^V12; type: in vivo, nude mice; details: intraperitoneal 3 and 5 days after cell injection, 21 days
Procedure: All experimental animals used in this study were treated according to guidelines approved by the Institutional Animal Care and Use Committee of Korea University. Female nude mice (Charles River, Wilmington, Mass.), four-weeks-old at the time of injection, were used in the experimental metastasis assay. Rat-2, Rat2-HO6, and Rat2-BLT2 cells (5×10^5 cells) were prepared for injection from cultures in logarithmic growth at the time of harvest. The cells were briefly treated with 0.025% trypsin and 0.1% EDTA in Hanks' balanced salt solution and quickly removed from trypsin by centrifugation, resuspended in saline containing LTB4, and injected within 1 hr in 0.1 ml into the lateral tail vein with a 26-gauge needle. For inhibitor experiments, U75302 and LY255283 (0.25 mg/kg for BLT1 antagonist and 2.5 mg/kg for BLT2 antagonist) was injected intraperitoneal ˜3 and 5 days after injection of cells that were pretreated with inhibitors. […]
In vivo lung metastasis driven by H-Ras^V12 (panel B of FIG. 2a) or BLT2 (panel C of FIG. 2a) was reduced by BLT2 inhibition (LY255283) based on the macroscopic and histologic appearance of lung. […] Mice were euthanized 21 days after cell injection, and the number of lung metastasis nodules and weight of lung was analyzed in each group. […] Metastasis survival was analyzed in Kaplan-Meyer plots.

AsPC-1 cells = test: MTT assay, cell viability; type: cell-based, human; details: 2.5, 5 and 10 μM, 48 h
Procedure: (§1) To investigate the effect of the selective BLT2 antagonist LY255283 on pancreatic cancer cell proliferation and survival, cell viability was determined by MTT assay after Panc-1 and AsPC-1 cells were exposed to LY255283 for 48 hr.
(§2) Two human pancreatic cancer cell lines were used: Panc-1 and AsPC-1. Panc-1 cells were grown in DMEM, and AsPC-1 cells were grown in RPMl 1640.
(§3) Cells were plated in 96-well plates at a concentration of 10,000 cells/well. After incubation for 24 h, cells were serum-starved for 3 h, and then various concentrations (2.5 μM, 5 μM and 10 μM) of LY255283 were added. At the end of experiments, 25μ! of a 5 mg/ml MTT solution, diluted in PBS, was added into the 96-well plates. The plates were incubated at 37° C. in 5% CO2 atmosphere for 3 hr, allowing viable cells to reduce the yellow tetrazolium salt (MTT) into dark blue formazan crystals. At the end of the 3 h incubation, the MTT solution was removed and 100 μl of dimethyl sulfoxide was added to dissolve the formazan crystals. To ensure complete dissolution of the formazan crystals, the plates were vortexed gently at low speed for 10 min. The absorbance in individual wells was determined at 540 nm by a microplate reader.

Panc-1 cells = test: MTT assay, cell viability; type: cell-based, human; details: 2.5, 5 and 10 μM, 48 h
Procedure: as §1, §2, §3

SMILES | morphological change [1] | DNA fragmentation [2] | lung metastasis driven by H-Ras^V12 (Rat2-HO6 cells) | cell viability (MTT), AsPC-3 as printed (AsPC-1 cells) | cell viability (MTT), Panc-1 (Panc-1 cells)
CCc1cc(C(C)=O)c(O)cc1OCCCCCC(C)(C)c1nnn[nH]1 [LY255283, 1-[5-ethyl-2-hydroxy-4-[[6-methyl-6-(1H-tetrazol-5-yl)heptyl]oxy]phenyl]-ethanone] | exhibited membrane blebbing, detached from plate | a ladder like pattern of DNA fragments | significantly reduced | diminished cell viability in dose-dependent manner | diminished cell viability in dose-dependent manner
CCCCC/C=C\C[C@@H](O)/C=C/c1cccc(C[C@@H](O)CCCCO)n1 [U75302] | – | not observed DNA fragments | caused no suppression on metastasis | – | –
